According to patent US8748415B2 (priority 2011, dated 2014):

These molecules were tested on recombinant NL4-3 virus (Renilla luciferase in nef, Gag P373S) (assay: HIV cell culture assay (luciferase activity in MT-2 cells infected with NLRluc recombinant virus)). Settings: NL43, MT-2 cells infected 4-5 days with NLRluc recombinant virus, class symbol.
Assay type: cell-based
Outline: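 MT-2 cells in RPMI/10% FBS were infected with recombinant NL4-3 (NLRluc), produced by 293T transfection and titered in MT-2 by luciferase. Serial inhibitor dilutions were present throughout a 4–5 day infection. Antiviral activity was quantified as Renilla luciferase signal via a modified Dual Luciferase read.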
Molecule `C=C(C)[C@@H]1CC[C@]2(CNCCCN3CCS(=O)(=O)CC3)CC[C@]3(C)[C@H](CC[C@@H]4[C@@]5(C)CC=C(c6ccc(C(=O)NS(=O)(=O)C7CC7)cc6)C(C)(C)[C@@H]5CC[C@]43C)[C@@H]12` [Example 172, benzamide, N-(cyclopropylsulfonyl)-4-((1R,3aS,5aR,5bR,7aR,11aS,11bR,13aR,13bR)-3a-(((3-(1,1-dioxido-4-thiomorpholinyl)propyl)amino)methyl)-1-isopropenyl-5a,5b,8,8,11a-pentamethyl-2,3,3a,4,5,5a,5b,6,7,7a,8,11,11a,11b,12,13,13a,13b-octadecahydro-1H-cyclopenta[a]chrysen-9-yl)benzamide] has an EC50 of under 100 nM.
`C=C(C)[C@@H]1CC[C@]2(CNC(=O)CN3CCCC3=O)CC[C@]3(C)[C@H](CC[C@@H]4[C@@]5(C)CC=C(c6ccc(C(=O)O)cc6)C(C)(C)[C@@H]5CC[C@]43C)[C@@H]12` [Example 133, 4-((1R,3aS,5aR,5bR,7aR,11aS,11bR,13aR,13bR)-5a, 5b,8,8,11a-pentamethyl-3a-((2-(2-oxopyrrolidin-1-yl)acetamido)methyl)-1-(prop-1-en-2-yl)-2,3,3a,4,5,5a,5b,6,7,7a,8,11,11a,11b,12,13,13a,13b-octadecahydro-1H-cyclopenta[a]chrysen-9-yl)benzoic acid] gave an EC50 of under 100 nM.
`C=C(C)[C@@H]1CC[C@]2(CNCCCN3CCOCC3)CC[C@]3(C)[C@H](CC[C@@H]4[C@@]5(C)CC=C(c6ccc(C(=O)O)cc6)C(C)(C)[C@@H]5CC[C@]43C)[C@@H]12` [Example 2, 4-((1R,3aS,5aR,5bR,7aR,11aS,11bR,13aR,13bR)-5a,5b,8,8,11a-pentamethyl-3a-((3-morpholinopropylamino)methyl)-1-(prop-1-en-2-yl)-2,3,3a,4,5,5a,5b,6,7,7a,8,11,11a,11b,12,13,13a,13b-octadecahydro-1H-cyclopenta[a]chrysen-9-yl)benzoic acid] gave an EC50 of under 100 nM.
In the case of `C=C(C)[C@@H]1CC[C@]2(CN(C)C)CC[C@]3(C)[C@H](CC[C@@H]4[C@@]5(C)CC=C(c6ccc(C(=O)O)cc6)C(C)(C)[C@@H]5CC[C@]43C)[C@@H]12` [Example 83, 4-((1R,3aS,5aR,5bR,7aR,11aS,11bR,13aR,13bR)-3a-((dimethylamino)methyl)-5a,5b,8,8,11a-pentamethyl-1-(prop-1-en-2-yl)-2,3,3a,4,5,5a,5b,6,7,7a,8,11,11a,11b,12,13,13a,13b-octadecahydro-1H-cyclopenta[a]chrysen-9-yl)benzoic acid], the EC50 is reported as under 100 nM.
Work on `C=C(C)[C@@H]1CC[C@]2(CNS(=O)(=O)c3ccc(C(=O)O)cc3)CC[C@]3(C)[C@H](CC[C@@H]4[C@@]5(C)CC=C(c6ccc(C(=O)O)cc6)C(C)(C)[C@@H]5CC[C@]43C)[C@@H]12` [Example 167, 4-(N—(((1R,3aS,5aR,5bR,7aR,11aS,11bR,13aR,13bR)-9-(4-carboxyphenyl)-5a,5b,8,8,11a-pentamethyl-1-(prop-1-en-2-yl)-2,3,3a,4,5,5a,5b,6,7,7a,8,11,11a,11b,12,13,13a,13b-octadecahydro-1H-cyclopenta[a]chrysen-3a-yl)methyl)sulfamoyl)benzoic acid] yielded an EC50 of under 100 nM.
Molecule `C=C(C)[C@@H]1CC[C@]2(CNCCO)CC[C@]3(C)[C@H](CC[C@@H]4[C@@]5(C)CC=C(c6ccc(C(=O)O)cc6)C(C)(C)[C@@H]5CC[C@]43C)[C@@H]12` [Example 178, 4-((1R,3aS,5aR,5bR,7aR,11aS,11bR,13aR,13bR)-3a-((2-hydroxyethylamino)methyl)-5a,5b,8,8,11a-pentamethyl-1-(prop-1-en-2-yl)-2,3,3a,4,5,5a,5b,6,7,7a,8,11,11a,11b,12,13,13a,13b-octadecahydro-1H-cyclopenta[a]chrysen-9-yl)benzoic acid] has an EC50 of under 100 nM.
`C=C(C)[C@@H]1CC[C@]2(CNCCC(=O)N3CCSCC3)CC[C@]3(C)[C@H](CC[C@@H]4[C@@]5(C)CC=C(c6ccc(C(=O)O)cc6)C(C)(C)[C@@H]5CC[C@]43C)[C@@H]12` [Example 122, 4-((1R,3aS,5aR,5bR,7aR,11aS,11bR,13aR,13bR)-5a,5b,8,8,11a-pentamethyl-3a-((3-oxo-3-thiomorpholinopropylamino)methyl)-1-(prop-1-en-2-yl)-2,3,3a,4,5,5a,5b,6,7,7a,8,11,11a,11b,12,13,13a,13b-octadecahydro-1H-cyclopenta[a]chrysen-9-yl)benzoic acid] was tested, and the EC50 was under 100 nM.
`C=C(C)[C@@H]1CC[C@]2(CNCCC(=O)N3CCN(S(=O)(=O)N(C)C)CC3)CC[C@]3(C)[C@H](CC[C@@H]4[C@@]5(C)CC=C(c6ccc(C(=O)O)cc6)C(C)(C)[C@@H]5CC[C@]43C)[C@@H]12` [Example 97, 4-((1R,3aS,5aR,5bR,7aR,11aS,11bR,13aR,13bR)-3a-((3-(4-(N,N-dimethylsulfamoyl)piperazin-1-yl)-3-oxopropylamino)methyl)-5a,5b,8,8,11a-pentamethyl-1-(prop-1-en-2-yl)-2,3,3a,4,5,5a,5b,6,7,7a,8,11,11a,11b,12,13,13a,13b-octadecahydro-1H-cyclopenta[a]chrysen-9-yl)benzoic acid] was tested, and the EC50 was under 100 nM.
In the case of `C=C(C)[C@@H]1CC[C@]2(CNCC(=O)N3CCN(S(=O)(=O)N(C)C)CC3)CC[C@]3(C)[C@H](CC[C@@H]4[C@@]5(C)CC=C(c6ccc(C(=O)O)cc6)C(C)(C)[C@@H]5CC[C@]43C)[C@@H]12` [Example 113, 4-((1R,3aS,5aR,5bR,7aR,11aS,11bR,13aR,13bR)-3a-((2-(4-(N,N-dimethylsulfamoyl)piperazin-1-yl)-2-oxoethylamino)methyl)-5a,5b,8,8,11a-pentamethyl-1-(prop-1-en-2-yl)-2,3,3a,4,5,5a,5b,6,7,7a,8,11,11a,11b,12,13,13a,13b-octadecahydro-1H-cyclopenta[a]chrysen-9-yl)benzoic acid], the EC50 is reported as under 100 nM.
In the case of `C=C(C)[C@@H]1CC[C@]2(CNC(=O)[C@@H]3CCCN3)CC[C@]3(C)[C@H](CC[C@@H]4[C@@]5(C)CC=C(c6ccc(C(=O)O)cc6)C(C)(C)[C@@H]5CC[C@]43C)[C@@H]12` [Example 136, 4-((1R,3aS,5aR,5bR,7aR,11aS,11bR,13aR,13bR)-5a,5b,8,8,11a-pentamethyl-1-(prop-1-en-2-yl)-3a-(((S)-pyrrolidine-2-carboxamido)methyl)-2,3,3a,4,5,5a,5b,6,7,7a,8,11,11a,11b,12,13,13a,13b-octadecahydro-1H-cyclopenta[a]chrysen-9-yl)benzoic acid], the EC50 is reported as under 100 nM.
`C=C(C)[C@@H]1CC[C@]2(CNC(=O)NCC(=O)OCC)CC[C@]3(C)[C@H](CC[C@@H]4[C@@]5(C)CC=C(c6ccc(C(=O)O)cc6)C(C)(C)[C@@H]5CC[C@]43C)[C@@H]12` [Example 156, 4-((1R,3aS,5aR,5bR,7aR,11aS,11bR,13aR,13bR)-3a-((3-(2-ethoxy-2-oxoethyl)ureido)methyl)-5a,5b,8,8,11a-pentamethyl-1-(prop-1-en-2-yl)-2,3,3a,4,5,5a,5b,6,7,7a,8,11,11a,11b,12,13,13a,13b-octadecahydro-1H-cyclopenta[a]chrysen-9-yl)benzoic acid] showed an EC50 of under 100 nM.
Work on `C=C(C)[C@@H]1CC[C@]2(CNCC(=O)N3CCC[C@@H]3C(=O)O)CC[C@]3(C)[C@H](CC[C@@H]4[C@@]5(C)CC=C(c6ccc(C(=O)O)cc6)C(C)(C)[C@@H]5CC[C@]43C)[C@@H]12` [Example 114, (R)-1-(2-(((1R,3aS,5aR,5bR,7aR,11aS,11bR,13aR,13bR)-9-(4-carboxyphenyl)-5a,5b,8,8,11a-pentamethyl-1-(prop-1-en-2-yl)-2,3,3a,4,5,5a,5b,6,7,7a,8,11,11a,11b,12,13,13a,13b-octadecahydro-1H-cyclopenta[a]chrysen-3a-yl)methylamino)acetyl)pyrrolidine-2-carboxylic acid] yielded an EC50 of under 100 nM.
Work on `C=C(C)[C@@H]1CC[C@]2(CNC(=O)c3ccc(S(N)(=O)=O)cc3)CC[C@]3(C)[C@H](CC[C@@H]4[C@@]5(C)CC=C(c6ccc(C(=O)O)cc6)C(C)(C)[C@@H]5CC[C@]43C)[C@@H]12` [Example 144, 4-((1R,3aS,5aR,5bR,7aR,11aS,11bR,13aR,13bR)-5a,5b,8,8,11a-pentamethyl-1-(prop-1-en-2-yl)-3a((4-sulfamoylbenzamido)methyl)-2,3,3a,4,5,5a,5b,6,7,7a,8,11,11a,11b,12,13,13a,13b-octadecahydro-1H-cyclopenta[a]chrysen-9-yl)benzoic acid] yielded an EC50 of under 100 nM.
Work on `C=C(C)[C@@H]1CC[C@]2(CNC(=O)[C@H](N)CCS(C)(=O)=O)CC[C@]3(C)[C@H](CC[C@@H]4[C@@]5(C)CC=C(c6ccc(C(=O)O)cc6)C(C)(C)[C@@H]5CC[C@]43C)[C@@H]12` [Example 135, 4-((1R,3aS,5aR,5bR,7aR,11aS,11bR,13aR,13bR)-3a-(((R)-2-amino-4-(methylsulfonyl)butanamido)methyl)-5a,5b,8,8,11a-pentamethyl-1-(prop-1-en-2-yl)-2,3,3a,4,5,5a,5b,6,7,7a,8,11,11a,11b,12,13,13a,13b-octadecahydro-1H-cyclopenta[a]chrysen-9-yl)benzoic acid] yielded an EC50 of under 100 nM.

Same assay, conditions: NL43, MT-2 cells infected 4-5 days with NLRluc recombinant virus, numeric value
`C=C(C)[C@@H]1CC[C@]2(CNCC3CCCN3CC)CC[C@]3(C)[C@H](CC[C@@H]4[C@@]5(C)CC=C(c6ccc(C(=O)O)cc6)C(C)(C)[C@@H]5CC[C@]43C)[C@@H]12` (single isomer, unassigned) [Example 3] was tested, and the EC50 was 30 nM.
Molecule `C=C(C)[C@@H]1CC[C@]2(CNC(=O)Nc3ccc(C(=O)OC)cc3)CC[C@]3(C)[C@H](CC[C@@H]4[C@@]5(C)CC=C(c6ccc(C(=O)O)cc6)C(C)(C)[C@@H]5CC[C@]43C)[C@@H]12` [Example 160, 4-((1R,3aS,5aR,5bR,7aR,11aS,11bR,13aR,13bR)-3a-((3-(4-(methoxycarbonyl)phenyl)ureido)methyl)-5a,5b,8,8,11a-pentamethyl-1-(prop-1-en-2-yl)-2,3,3a,4,5,5a,5b,6,7,7a,8,11,11a,11b,12,13,13a,13b-octadecahydro-1H-cyclopenta[a]chrysen-9-yl)benzoic acid] has an EC50 of 260 nM.
